Laboratory results published in US9994848B2, “Pharmaceutical composition for preventing and teating endocrine disrupting chemicals-induced diseases and treating method using the same” (priority 2016, dated 2018).

Legend:
3T3-L1 adipocytes [1] = experiment: Oil Red O staining of 3T3-L1 adipocytes (adipocyte differentiation, total lipid content); type: cell-based, mouse; conditions: for oil red O staining (adipocyte differentiation): PCBs 20 μM during DMI treatment, 3T3-L1 adipocytes
Description: (§1) 3T3-L1 mouse embryo fibroblasts, purchased from American Type Culture Collection (Manassas, Va., USA), were maintained in standard Dulbecco's modified Eagle's medium (DMEM; Gibco-BRL, Gaithersburg, Md., USA) supplemented with 10% fetal calf serum (FCS; Gibco-BRL, Gaithersburg, Md., USA) and 1% penicillin/streptomycin at 37° C. in a humidified 5% CO2 atmosphere. After confluence, 3T3-L1 cells were induced to differentiate using DMI induction medium (DMEM containing 10% FBS, 0.5 mM 3-isobutyl-1-methylxanthine, 0.5 μM dexamethasone, and 1 μg/ml insulin) for 2 days, followed by DMII (DMEM containing 10% FBS and 1 μg/ml insulin) for 2 days. The medium was subsequently replaced with fresh culture medium (DMEM with 10% FBS) every 2 days for 4 days. To define the effects of PCBs on adipocyte differentiation, we incubated preadipocytes with PCBs (PCB-77, PCB-118, PCB-138 or PCB-153) at equivalent concentrations (20 μM) during DMI treatment.
(§2) For the siRNA-mediated down-regulation of Fsp27, Fsp27-specific siRNA and negative control siRNA were purchased from Bioneer (Daejeon, Korea) and used at a concentration of 20 nM. 3T3-L1 mouse embryo fibroblasts were transfected with either the siRNA molecule specific for Fsp27 or a negative control siRNA using Lipofectamine® RNAiMAX per the manufacturer's instructions.
As previously described (Kim et al. 2015), cells were washed twice in phosphate buffered saline (PBS) and fixed for 1 h with 10% (w/v) formaldehyde in PBS. After two washes in 60% isopropyl alcohol, the cells were stained for 30 min in freshly diluted Oil Red O solution. Then, the stain was removed, and the cells were washed 4 times in water. After adding 100% 2-propanol at 500 nm, the absorbance of the eluted Oil Red O was measured in a spectrophotometer.

aP2, PPAR and C/EBP = experiment: mRNA and protein levels of adipocyte differentiation markers in vitro; type: cell-based, mouse
Description: as §1, with “To define the effects of PCBs on adipocyte differentiation, we incubated preadipocytes with PCBs (PCB-77, PCB-118, PCB-138 or PCB-153) at equivalent concentrations (20 μM) during DMI treatment.” left out
(§3) Cells and tissues were washed with ice-cold PBS, resuspended in 100 μL ice-cold RIPA buffer and incubated at 4° C. for 30 min. […] Immunostaining with antibodies was performed using the Super Signal West Pico (Thermo Scientific, Hudson, N.H., USA) enhanced chemiluminescence substrate and detected with LAS-3000 Plus (Fuji Photo Film, Tokyo, Japan). Quantification and normalization to actin or GAPDH control bands were performed using ImageJ 1.48q (NIH imaging software, Bethesda, Md., USA).

C57BL/6 mice [2] = experiment: PCB exposure of C57BL/6 mice: adipose mass, adipocyte size, body and liver weight; type: in vivo, mouse; conditions: 37.5 mg/kg ip, three injections, 6-week study
Description: (§4) Adult male C57BL/6 mice (8-week-old, 22-25 g) were purchased from SamTako Bio-Korea (Osan, Korea). The animals were maintained in a temperature-controlled room (22° C.) on a 12:12-h light-dark cycle. All procedures were approved by the Committee on Animal Investigations at Dong-A University. 12-week-old mice were administered vehicle (corn oil), PCB-118 or PCB-138 (37.5 mg/kg) by intraperitoneal (ip) injection for a total of three injections (2, 3 and 5 weeks) during the 6-week study duration. Mice were randomly divided into 3 groups of 10 animals each.
Epididymal white adipose tissues (eWAT) were fixed in 10% neutral buffered formalin and embedded in paraffin. Four-micrometer sections were prepared and stained with hematoxylin and eosin. The morphology of the […] was photographed using an Aperio ScanScope (Aperio Technologies, Vista, Calif., USA).

3T3-L1 adipocytes [3] = experiment: Lipid droplet (LD) morphology and size in 3T3-L1 adipocytes (phase contrast, confocal microscopy); type: cell-based, mouse; conditions: for large LD formation: 3T3-L1 adipocytes treated with PCBs
Description: as §1, §2

Fsp27 and perilipin [4] = experiment: Western blot of LD-associated proteins in 3T3-L1 adipocytes; type: cell-based, mouse; conditions: for protein expression levels of Fsp27 and perilipin: in vitro
Description: as §1
(§5) Cells and tissues were washed with ice-cold PBS, resuspended in 100 μL ice-cold RIPA buffer and incubated at 4° C. for 30 min. Lysates were centrifuged at 13,000 rpm for 30 min at 4° C. Equal amounts of proteins were subjected to 7.5-15% sodium dodecyl sulfate polyacrylamide gel electrophoresis. The proteins were transferred to a nitrocellulose membrane and reacted with each antibody. Immunostaining with antibodies was performed using the Super Signal West Pico (Thermo Scientific, Hudson, N.H., USA) enhanced chemiluminescence substrate and detected with LAS-3000 Plus (Fuji Photo Film, Tokyo, Japan). Quantification and normalization to actin or GAPDH control bands were performed using ImageJ 1.48q (NIH imaging software, Bethesda, Md., USA).

Fsp27 and perilipin [5] = experiment: Western blot of LD-associated proteins in PCB-administered mice; set-up: species or system mouse; conditions: in vivo
Description: as §4, §5

C57BL/6 mice [6] = experiment: Blood glucose, plasma insulin, GTT and ITT in PCB-administered mice; type: in vivo, mouse; conditions: for blood glucose level / plasma insulin level: 37.5 mg/kg ip; for amount of hyperglycemia in GTT: glucose 1 mg/g ip after 16 h fast; for efficiency of insulin in ITT: insulin 0.75 U/kg ip after 16 h fast
Description: as §4
As previously described, intraperitoneal glucose tolerance tests (GTT) and insulin tolerance tests (ITT) were performed after the mice were fasted for 16 h. Plasma glucose concentrations were measured in tail blood using a GlucoDr Blood Glucose Test Strip (Hasuco, Seoul, South Korea) prior to and 30, 60, 90 and 120 minutes after intraperitoneally injecting a bolus of glucose (1 mg/g) for the GTT, and at the same time-points after intraperitoneally injecting 0.75 U/kg body weight insulin for the ITT.

[7] = system: p-Akt (Ser473) and p-PI3K p85 (Tyr458); experiment: Western blot of insulin-induced p-Akt and p-PI3K p85 in 3T3-L1 adipocytes; type: cell-based, mouse; conditions: for insulin-induced upregulation of p-Akt (Ser473) and p-PI3K p85 (Tyr458): 3T3-L1 adipocytes
Description: as §1, §5

IRS1 = IRS1 protein and mRNA level in 3T3-L1 adipocytes; type: cell-based, mouse; conditions: correlated with reversal of Fsp27 upregulation, Western blot
Description: as §1, with “To define the effects of PCBs on adipocyte differentiation, we incubated preadipocytes with PCBs (PCB-77, PCB-118, PCB-138 or PCB-153) at equivalent concentrations (20 μM) during DMI treatment.” left out
as §3

adipocytes = experiment: Accumulation of PCBs in adipocytes; type: cell-based

Structure (SMILES) | oil red O staining (adipocyte differentiation) (3T3-L1 adipocytes [1]) | mRNA and protein levels of aP2, PPAR and C/EBP (markers of adipocyte differentiation) (aP2, PPAR and C/EBP) | adipocyte size (eWAT) (C57BL/6 mice [2]) | adipose mass (C57BL/6 mice [2]) | body weight (C57BL/6 mice [2]) | liver weight (C57BL/6 mice [2]) | large LD formation (3T3-L1 adipocytes [3]) | protein expression levels of Fsp27 and perilipin (Fsp27 and perilipin [4]; 3T3-L1 adipocytes) | protein expression levels of Fsp27 and perilipin (Fsp27 and perilipin [5]) | blood glucose level (C57BL/6 mice [6]) | plasma insulin level (C57BL/6 mice [6]) | amount of hyperglycemia in GTT (C57BL/6 mice [6]) | efficiency of insulin in ITT (C57BL/6 mice [6]) | insulin-induced upregulation of p-Akt (Ser473) and p-PI3K p85 (Tyr458) [7] | other results
Clc1ccc(-c2ccc(Cl)c(Cl)c2)cc1Cl [PCB-77, 3,3′,4,4′-tetrachlorobiphenyl] |  |  |  |  |  |  |  |  |  |  |  |  |  |  | effect on the adipocyte differentiation (3T3-L1 adipocytes [1]; compared to PCB-118 and PCB-138, 20 μM): meager effect
Clc1ccc(-c2cc(Cl)c(Cl)cc2Cl)cc1Cl [PCB-118, 2,3′,4,4′,5-pentachlorobiphenyl] | significantly increased | increased | increased | increased | without affecting | without affecting | promote large LD formation | increased | increased | increased | increased | increased | reduced | impaired | 
Clc1cc(Cl)c(-c2ccc(Cl)c(Cl)c2Cl)cc1Cl [PCB-138, 2,2′,3,4,4′,5′-Hexachlorobiphenyl] | significantly increased | increased | increased | increased | without affecting | without affecting | promote large LD formation | increased | increased | increased | increased | increased | reduced | impaired | 
CN(C)C(=N)N=C(N)N [metformin, reference compound] |  |  |  |  |  |  |  |  |  |  |  |  |  |  | PCB-induced LD enlargement (3T3-L1 adipocytes [3]; PCB-treated 3T3-L1 adipocytes, phase contrast microscopy): reversed; expression level of Fsp27 (Fsp27 and perilipin [4]; 3T3-L1 adipocytes, Western blot): reduced; PCB-induced upregulation of Fsp27 expression (Fsp27 and perilipin [4]; PCB-treated 3T3-L1 adipocytes, Western blot): reversed; impairment by PCBs of the insulin-induced upregulation of p-Akt (Ser473) and p-PI3K p85 (Tyr458) ([7]; PCB-treated 3T3-L1 adipocytes): reversed; IRS1 downregulation in adipocytes exposed to PCBs (IRS1): reversal; accumulation of PCB-118 and PCB-138 in adipocytes (adipocytes): reverted
